Measurements: ChEMBL document CHEMBL4842390, “Amino-Heterocycle Tetrahydroisoquinoline CXCR4 Antagonists with Improved ADME Profiles via Late-Stage Buchwald Couplings” (ACS Med Chem Lett, 2021)

Tests used:
[1] = biological target: C-X-C chemokine receptor type 4 (Homo sapiens, UniProt P61073); experiment: Antagonist activity at CXCR4 receptor in human CCRF-CEM cells assessed as inhibition of SDF-1alpha-induced calcium release preincubated for 25 mins followed by SDF-1alpha addition and monitered for 90 sec; type: functional, cell-based
C-X-C chemokine receptor type 4, sequence (P61073 whole entry): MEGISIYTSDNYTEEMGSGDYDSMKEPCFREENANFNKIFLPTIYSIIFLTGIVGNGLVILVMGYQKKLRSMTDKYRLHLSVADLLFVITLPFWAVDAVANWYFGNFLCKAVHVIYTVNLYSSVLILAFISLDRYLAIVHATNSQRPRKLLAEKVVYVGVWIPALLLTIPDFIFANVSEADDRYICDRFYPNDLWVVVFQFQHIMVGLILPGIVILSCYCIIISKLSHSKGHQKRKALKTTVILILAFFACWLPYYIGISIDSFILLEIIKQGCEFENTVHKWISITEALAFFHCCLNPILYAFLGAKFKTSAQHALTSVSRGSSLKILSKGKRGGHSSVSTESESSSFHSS

[2] = Metabolic stability in rat liver microsomes assessed as parent compound remaining incubated for 10 mins in presence of NADPH; type: ADME, Microsome; conditions: read-out: Stabilty
[3] = Metabolic stability in mouse liver microsomes assessed as parent compound remaining incubated for 10 mins in presence of NADPH; type: ADME, Microsome; conditions: read-out: Stabilty
[4] = biological target: Cytochrome P450 2D6 (Homo sapiens, UniProt P10635); experiment: Inhibition of human recombinant CYP2D6 expressed in insect cells using AMMC as substrate preincubated for 30 mins followed by NADPH regenerating system addition and measured after 45 mins by fluorescence based assay; type: ADME
Cytochrome P450 2D6, sequence (P10635 whole entry): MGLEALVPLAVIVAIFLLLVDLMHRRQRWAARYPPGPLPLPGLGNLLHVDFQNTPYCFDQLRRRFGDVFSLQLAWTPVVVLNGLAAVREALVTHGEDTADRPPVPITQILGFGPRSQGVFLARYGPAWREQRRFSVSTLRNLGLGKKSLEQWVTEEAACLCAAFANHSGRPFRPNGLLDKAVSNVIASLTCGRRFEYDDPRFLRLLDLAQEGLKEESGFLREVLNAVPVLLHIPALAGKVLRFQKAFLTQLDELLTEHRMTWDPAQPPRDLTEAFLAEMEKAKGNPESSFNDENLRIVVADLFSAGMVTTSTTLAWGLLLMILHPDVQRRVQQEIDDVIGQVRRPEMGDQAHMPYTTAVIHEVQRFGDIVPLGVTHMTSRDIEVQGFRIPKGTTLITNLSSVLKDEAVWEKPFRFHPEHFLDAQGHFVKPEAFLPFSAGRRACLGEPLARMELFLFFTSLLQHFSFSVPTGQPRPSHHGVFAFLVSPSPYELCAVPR

[5] = Permeability of the compound at pH 7.4 incubated for 4 hrs by PAMPA; type: ADME; conditions: read-out: permeability
[6] = biological target: Cytochrome P450 3A4 (Homo sapiens, UniProt P08684); experiment: Inhibition of CYP3A4 (unknown origin); type: ADME
Cytochrome P450 3A4, sequence (P08684 whole entry): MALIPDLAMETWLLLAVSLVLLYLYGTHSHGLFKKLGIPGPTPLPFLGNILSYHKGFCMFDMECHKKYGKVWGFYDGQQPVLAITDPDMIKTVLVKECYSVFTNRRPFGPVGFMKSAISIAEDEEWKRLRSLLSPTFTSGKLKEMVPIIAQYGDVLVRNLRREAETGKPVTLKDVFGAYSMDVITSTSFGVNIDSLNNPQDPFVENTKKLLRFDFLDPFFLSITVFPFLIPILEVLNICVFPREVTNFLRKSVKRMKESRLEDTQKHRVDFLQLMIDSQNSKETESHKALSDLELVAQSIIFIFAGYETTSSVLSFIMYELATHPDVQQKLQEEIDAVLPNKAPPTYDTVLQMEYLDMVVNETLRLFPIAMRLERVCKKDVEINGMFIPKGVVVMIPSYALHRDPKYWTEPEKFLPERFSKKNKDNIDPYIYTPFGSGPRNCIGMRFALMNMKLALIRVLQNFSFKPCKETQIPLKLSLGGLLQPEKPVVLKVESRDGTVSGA

[7] = cells; conditions: Homo sapiens, CCRF-CEM
Description: Antagonist activity at muscarinic acetylcholine receptor in human CCRF-CEM cells assessed as inhibition of acetylcholine-induced calcium release preincubated for 25 mins followed by acetylcholine addition and monitered for 90 sec

[8] = Metabolic stability in human liver microsomes assessed as parent compound remaining incubated for 10 mins in presence of NADPH; type: ADME, Microsome; conditions: read-out: Stabilty
[9] = biological target: Cytochrome P450 2C9 (Homo sapiens, UniProt P11712); experiment: Inhibition of CYP2C9 (unknown origin); type: ADME
Cytochrome P450 2C9, sequence (P11712 whole entry): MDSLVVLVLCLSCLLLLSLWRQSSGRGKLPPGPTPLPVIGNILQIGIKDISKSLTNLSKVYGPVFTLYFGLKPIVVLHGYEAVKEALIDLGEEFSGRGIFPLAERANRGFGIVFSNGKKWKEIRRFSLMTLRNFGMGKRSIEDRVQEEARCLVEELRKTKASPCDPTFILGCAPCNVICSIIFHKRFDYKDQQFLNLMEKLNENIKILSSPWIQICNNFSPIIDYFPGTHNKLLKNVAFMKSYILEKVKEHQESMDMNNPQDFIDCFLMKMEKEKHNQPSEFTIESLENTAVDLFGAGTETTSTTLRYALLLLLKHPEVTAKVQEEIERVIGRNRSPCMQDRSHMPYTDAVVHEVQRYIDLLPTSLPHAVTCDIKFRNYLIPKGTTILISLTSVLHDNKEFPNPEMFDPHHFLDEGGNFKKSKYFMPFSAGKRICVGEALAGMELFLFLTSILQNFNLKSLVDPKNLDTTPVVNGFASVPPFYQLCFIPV

[10] = AUC (0 to 8 hrs) in CD-1 mouse at 30 mg/kg, po or at 3 mg/kg, iv measured up to 8 hrs by UPLC-MS/MS analysis; type: ADME, organism-based; parameters: dose 30 mg/kg, time <=8; conditions: in vivo
[11] = Volume of distribution in CD-1 mouse at 30 mg/kg, po or at 3 mg/kg, iv by UPLC-MS/MS analysis; type: ADME, organism-based; conditions: in vivo
[12] = Half life in CD-1 mouse at 30 mg/kg, po or at 3 mg/kg, iv by UPLC-MS/MS analysis; conditions: in vivo
[13] = Oral bioavailability in CD-1 mouse at 30 mg/kg measured upto 8 hrs by UPLC-MS/MS analysis; type: ADME, organism-based; conditions: in vivo

| Compound | IC50 [1] | remaining at 10 min [2] | remaining at 10 min [3] | IC50 [4] | Papp at 4 h [5] | IC50 [6] | IC50 [7] | remaining at 10 min [8] | IC50 [9] | AUC(0-t) [10] | Vd [11] | half-life [12] | bioavailability [13] |
| --- | --- | --- | --- | --- | --- | --- | --- | --- | --- | --- | --- | --- | --- |
| CN(C)C1CCN(c2cccc3c2C[C@H](CN(C)[C@H]2CCCc4cccnc42)NC3)C1 (single isomer, unassigned; 36) | 0.0104 µM | 3.88% | 28.2% | 3.67 µM | 14 nm/s | > 20 µM | > 5.56 µM |  |  |  |  |  |  |
| CN(C[C@H]1Cc2c(cccc2N2CCC(N)CC2)CN1)[C@H]1CCCc2cccnc21 | 0.0334 µM | 38.4% | 70.3% | 3.96 µM |  | > 20 µM | > 33.3 µM | 80.8% |  |  |  |  |  |
| CN(C[C@H]1Cc2c(cccc2N2C[C@H]3CNC[C@H]3C2)CN1)[C@H]1CCCc2cccnc21 | 0.0103 µM | 38.1% | 54.7% | 7.81 µM |  | > 20 µM | 6.39 µM | 86.7% |  |  |  |  |  |
| CN(C[C@@H]1Cc2c(cccc2NC2CCNCC2)CN1)[C@H]1CCCc2cccnc21 | 1.67 µM | 26.2% | 12.4% | > 20 µM |  | > 20 µM | > 16.7 µM | 79.9% |  |  |  |  |  |
| CN(C)C1CCN(c2cccc3c2C[C@H](CN(C)[C@H]2CCCc4cccnc42)NC3)C1 (single isomer, unassigned; 37) | 0.0109 µM | 4.55% | 18.5% | 15.4 µM | 16 nm/s | > 20 µM | 12.3 µM | 67.5% |  |  |  |  |  |
| CN(C)C1CCN(c2cccc3c2C[C@H](CN(C)[C@H]2CCCc4cccnc42)NC3)CC1 | 0.0359 µM | 52.4% | 70.2% | > 20 µM | 44 nm/s | > 20 µM | > 16.7 µM | 78.4% | 6.67 µM |  |  |  |  |
| NCCCCN(Cc1nc2ccccc2[nH]1)[C@H]1CCCc2cccnc21 [MAVORIXAFOR] |  |  |  |  |  |  |  |  |  | 0.101 µg·h/mL | 32.2 L/kg | 3.1 h | 2.4% |
| CN1CCC(N(C)c2cccc3c2C[C@H](CN(C)[C@H]2CCCc4cccnc42)NC3)CC1 | 0.0134 µM | 6.52% |  | > 20 µM | 10 nm/s | > 20 µM | > 16.7 µM | 88.8% |  |  |  |  |  |
| CN1C[C@@H]2CN(c3cccc4c3C[C@H](CN(C)[C@H]3CCCc5cccnc53)NC4)C[C@@H]2C1 | 0.00956 µM | 35.3% | 32.9% | > 20 µM | 5 nm/s | > 20 µM | > 33.3 µM | 100% |  |  |  |  |  |
| CN1CC[C@H]2CN(c3cccc4c3C[C@H](CN(C)[C@H]3CCCc5cccnc53)NC4)C[C@H]21 | 0.0114 µM | 1.78% | 24% | 18.6 µM | 9 nm/s | > 20 µM | 11.9 µM | 87.3% |  |  |  |  |  |
| CN(C[C@H]1Cc2c(cccc2NC2CCNCC2)CN1)[C@H]1CCCc2cccnc21 | 0.0181 µM | 9.79% | 10.9% | > 20 µM |  | > 20 µM | > 16.7 µM | 75% |  |  |  |  |  |
| CN(C[C@H]1Cc2c(cccc2N[C@H]2CC[C@H](N)CC2)CN1)[C@H]1CCCc2cccnc21 |  | 75% | 100% | > 20 µM |  | > 20 µM | 0.826 µM | 100% |  |  |  |  |  |
| CN(C[C@H]1Cc2c(cccc2N2C[C@H]3CCN(C)[C@H]3C2)CN1)[C@H]1CCCc2cccnc21 | 0.0187 µM | 11.2% |  | 17.3 µM | 19 nm/s | > 20 µM | 2.9 µM | 97.6% |  |  |  |  |  |
